In patent US6211227A, “Tricyclic compounds” (Kyowa Hakko Kogyo Co., Ltd., priority 1997, dated 2001):
Like-named read-outs stand apart in the source and are kept apart here.

Legend:
bladder = experiment: animal or person; conditions: Rattus norvegicus, po, read-out: Contraction interval
Description: Male SD strain rats (200-300 g) were used as test animals. Each animal was anesthetized by intraperitoneally administering 50 mg/kg Nembutal. The hair on the abdomen, the thigh, and the back of the neck was shaved, followed by disinfection with 70% ethanol. The left femoral artery of the rat was exposed by incising the thigh for the insertion of a catheter into the femoral artery. A catheter filled with physiological saline containing heparin (1000 units/ml) was introduced approximately 2-3 cm into the artery so that its tip resided in the abdominal artery. The distal end of the catheter was exteriorized at the nape of the neck, sealed, and fixed on the skin tightly. A bladder catheter was implanted according to the method of Yaksh, et al., [Am. J. Physiol., vol.251, R1177-1185 (1986)]. The bladder was exposed through a midline abdominal incision. The bladder dome was given a small incision to make a small hole. A catheter filled with physiological saline was placed into the bladder and secured with a silk ligature. The other end of the catheter was exteriorized at the nape of the neck after being passed under the skin using a trocar. The exposed end of the catheter was sealed and fixed on the skin tightly. The abdominal muscles and skin were sutured, and the test animal was recovered from anesthesia.
The rat was weighed 24-48 hours after the operation. Each rat was placed in a Bollman cage (NATSUME SEISAKUSHO), and the test was done under partial restraint. The arterial catheter was connected to a pressure transducer (NIHON KODEN DX-300) used for the measurement of blood pressure. The bladder catheter was connected to a sylinge pump for physiological saline infusion and to a pressure transducer with PE50 tubing and a three-way stop-cock. Intravesical physiological saline infusion (0.05 ml/minute) was started and continued during the test. The changes of blood pressure, heart rate, and intravesical pressure were recorded with a polygraph (NIHON KODEN). The test animal was allowed to equilibration (for ca. 60-120 minutes) until its micturition pattern became constant. At this point, a basal value of each test parameter was recorded, and the rat was compulsorily given a test compound (in 0.3% carboxymethyl cellulose-physiological saline) at a dose of 1 mg/kg (body weight) by oral administration. […] As a control compound, cromakalim was used. The contraction interval, the systemic blood pressure, and the heart rate were measured for 5 hours after the administration of the compound at one-hour intervals and were expressed as the relative values based on the pre-administration values which were regarded as 100.

[1] = tested on: detrusor muscle (isolated urinary bladder strips); experiment: Relaxation of contraction induced by 50 mmol/l KCl in isolated urinary bladder strips (Test Example 1); design: species or system guinea pig (male albino Hartley); conditions: Cavia porcellus, 0.5 h; KCl 50 mmol/l; cumulative, contact time 30 minutes; 50% relaxant of maximum response
Description: (§1) The activity of Compounds (I) as therapeutic agents for pollakiuria and urinary incontinence is described below. In the following Test Examples 1 and 2, IC50 value was defined as the concentration at which a test compound produces 50% relaxant of maximum response of detrusor muscle.
(§2) Male albino Hartley guinea pigs (350-550 g) were used as test animals. Each animal was exsanguinated to death under sodium pentobarbital anesthesia. The lower abdominal cavity was opened and its bladder was positioned. The connective tissue and the fat tissue around the bladder were removed, and the bladder was washed. After bilateral pelvic nerves on the surface of the abdominal side of the bladder were dissected, the bladder was taken out on the entrance of ureter. The bladder was washed with a Krebs-Henseleit buffer [composition (mM): NaCl 118, KCl 4.7, MgSO4 1.2, KH2 PO4 1.2, CaCl2 2.5, NaHCO3 25, and D-glucose 11.1], and then put on a gauze patch soaked in the buffer in a Petri dish. The dome and the trigone of the bladder were cut away. The back of the bladder was cut vertically in the middle with scissors, and the bladder was put flat on the gauze patch. The mucosa of the bladder was removed. The back of the bladder was cut vertically to get 6 strips which are ca. 2.0 mm wide and ca. 10 mm long.
(§3) Each strip was tied at one end to plastic rod and placed in a 20 ml organ bath containing a Krebs-Henseleit solution which was maintained at 37° C. and bubbled vigorously with a gas mixture of 5% CO2 and 95% O2. The pH of the solution was adjusted to about 7.4. The other end of the strip was tied via silk thread to a force displacement transducer (NIHON KODEN TB-611T). The transducer was connected to a polygraph (NIHON KODEN AP-621G), and the changes in tension were recorded on a recorder (YOKOGAWA type 3066). The polygraph was graduated by 0.5 g/cm.
After the tissue was incubated in the buffer for 15 minutes without preloading, tension was added thereto for about one hour. The preloading tension added was 1.5 g and it was relaxed to about 1 g. The strips were allowed to equilibrate until their contractions became constant and tension was adjusted to 1 g. After this equilibrium period, 50 mmol/l KCl (the whole content in the bath) was added, and the tissue was washed 10 minutes later. KCl was added to the tissue at intervals of 30 minutes, followed by washing 10 minutes later, and KCl was applied repeatedly until the developed tension induced by KCl becomes constant. When the tissue was confirmed to contract constantly by the application of KCl and relax to the steady state after washing, 50 mmol/l KCl was applied again. After the tissue reached the steady state and the base line was obtained, a test compound was applied by the cumulative method (half-logarithmic increment). The contact time at each concentration was 30 minutes. The activity of the compound was expressed as the maximum relaxation rate (%) against the tension induced by the agonist.

[2] = tested on: detrusor muscle (isolated urinary bladder strips); experiment: Relaxation of rhythmic contraction induced by 15 mmol/l KCl in isolated urinary bladder strips (Test Example 2); design: species or system guinea pig (male albino Hartley); conditions: Cavia porcellus; KCl 15 mmol/l; cumulative, contact time 15-30 minutes; 50% relaxant of maximum response
Description: as §1, §2, §3
Isolated urinary bladder strips were prepared in the same manner as in Test Example 1, and the tension of the preparation was measured. After the tension of the tissue was adjusted to be a steady state at 1 g, 15 mmol/l KCl was applied. After the rhythmic contraction was confirmed to appear by KCl, the tissue was washed. Then, 15 mmol/l KCl was applied again. After the rhythmic contraction induced by KCl became constant, a test compound was applied by the cumulative method (half-logarithmic increment). The contact time at each concentration was 15-30 minutes. The activity of the compound was expressed as the maximum relaxation rate (%) against the tension induced by the agonist.

SMILES | response vs control in vivo at 1 mg/kg (bladder; 1 h) [%] | response vs control in vivo at 1 mg/kg (bladder; 2 h) [%] | response vs control in vivo at 1 mg/kg (bladder; 3 h) [%] | response vs control in vivo at 1 mg/kg (bladder; 4 h) [%] | response vs control in vivo at 1 mg/kg (bladder; 5 h) [%] | IC50 [1] [µM] | IC50 [2] [µM] | response vs control in vivo at 0.1 mg/kg (bladder; 1 h) [%] | response vs control in vivo at 0.1 mg/kg (bladder; 2 h) [%] | response vs control in vivo at 0.1 mg/kg (bladder; 3 h) [%] | response vs control in vivo at 0.1 mg/kg (bladder; 4 h) [%] | response vs control in vivo at 0.1 mg/kg (bladder; 5 h) [%] | other results
CC(O)(C(=O)Nc1ccc2c(c1)S(=O)(=O)Cc1ccsc1C2=O)C(F)(F)F (stereo not drawn) [Compound 1-2, 5,5-Dioxo-7-(3,3,3-trifluoro-2-hydroxy-2-methylpropanoylamino)-4,10-dihydrothieno[3,2-c][1]benzothiepin-10-one] | 116 ± 8 | 136 ± 5 | 149 ± 9 | 143 ± 5 | 139 ± 6 | > 10 | 5.1 | – | – | – | – | – | –
CC(O)(C(=O)Nc1cccc2c1C(=O)c1ccccc1CS2(=O)=O)C(F)(F)F (stereo not drawn) [Compound 1-3, 5,5-Dioxo-1-(3,3,3-trifluoro-2-hydroxy-2-methylpropanoylamino)-6,11-dihydrodibenzo[b,e]thiepin-11-one] | 123 ± 15 | 135 ± 11 | 144 ± 10 | 160 ± 19 | 160 ± 16 | > 10 | 6.3 | – | – | – | – | – | –
C[C@](O)(C(=O)Nc1cccc2c1C(=O)c1sccc1CS2(=O)=O)C(F)(F)F [Compound 1-25, (S)-(+)-5,5-Dioxo-9-(3,3,3-trifluoro-2-hydroxy-2-methylpropanoylamino)-4,10-dihydrothieno[3,2-c][1]benzothiepin-10-one] | – | – | – | – | – | 10.5 | 2.6 | 108 ± 9 | 140 ± 9 | 140 ± 12 | 148 ± 13 | 163 ± 17 | response vs control in vivo at 3 mg/kg (bladder; 1 h): 129 ± 8%; response vs control in vivo at 10 mg/kg (bladder; 1 h): 133 ± 15%; response vs control in vivo at 3 mg/kg (bladder; 2 h): 125 ± 14%; response vs control in vivo at 10 mg/kg (bladder; 2 h): 128 ± 10%; response vs control in vivo at 3 mg/kg (bladder; 3 h): 143 ± 22%; response vs control in vivo at 10 mg/kg (bladder; 3 h): 149 ± 19%; response vs control in vivo at 3 mg/kg (bladder; 4 h): 165 ± 22%; response vs control in vivo at 10 mg/kg (bladder; 4 h): 180 ± 22%; response vs control in vivo at 3 mg/kg (bladder; 5 h): 161 ± 13%; response vs control in vivo at 10 mg/kg (bladder; 5 h): 183 ± 14%
C[C@@](O)(C(=O)Nc1cccc2c1C(=O)c1sccc1CS2(=O)=O)C(F)(F)F [Compound 1-26, (R)-(-)-5,5-Dioxo-9-(3,3,3-trifluoro-2-hydroxy-2-methylpropanoylamino)-4,10-dihydrothieno [3,2-c][1]benzothipin-10-one] | – | – | – | – | – | 6.3 | 6.6 | 118 ± 8 | 137 ± 7 | 145 ± 7 | 152 ± 8 | 168 ± 7 | –
O=C1c2ccc(NC(=O)C(F)(F)F)cc2S(=O)(=O)Cc2ccsc21 [Compound 3-5, 5,5-Dioxo-7-trifluoroacetylamino-4,10-dihydrothieno[3,2-c][1]benzothiepin-10-one] | 131 ± 12 | 152 ± 4 | 145 ± 18 | 157 ± 13 | 158 ± 4 | 8.7 | 8.3 | – | – | – | – | – | –
